System: A/WSN/33-nanoLuc or Ca/09
Format: cell-based, influenza A virus

O=c1nc(NO)ccn1[C@@H]1O[C@H](CO)[C@@H](O)[C@H]1O [NHC, N^4-hydroxycytidine]
drug concentration resulting in virus extinction: ≥ 4 µM
repeat exposure of NHC-experienced virus populations: again rapidly sterilizing

Source: publication PMC6848974 (Science translational medicine, 2019)
